Experimental data from the CheMixHub viscosity set.
Values joined by “and” are separate entries in the source; they are usually repeats but may differ in a detail not shown here. Equal values may be shown once.

Test: xn = mol fraction of the nth substance listed

CC1COC(=O)O1 (centres undefined) + CO
Conditions	viscosity [mPa·s]
298 K, 101.3 kPa, x1 = 0.0206	0.5726
298 K, 101.3 kPa, x1 = 0.0401	0.593
298 K, 101.3 kPa, x1 = 0.0604	0.6164
298 K, 101.3 kPa, x1 = 0.0808	0.6364
298 K, 101.3 kPa, x1 = 0.1018	0.6594
298 K, 101.3 kPa, x1 = 0.2016	0.7765
298 K, 101.3 kPa, x1 = 0.301	0.9078
298 K, 101.3 kPa, x1 = 0.401	1.058
298 K, 101.3 kPa, x1 = 0.5016	1.229
298 K, 101.3 kPa, x1 = 0.6002	1.418
298 K, 101.3 kPa, x1 = 0.7006	1.635
298 K, 101.3 kPa, x1 = 0.8004	1.877
298 K, 101.3 kPa, x1 = 0.9007	2.148
298.15 K, 101.33 kPa, x2 = 0.0512	2.266
298.15 K, 101.33 kPa, x2 = 0.0983	2.097
298.15 K, 101.33 kPa, x2 = 0.1406	1.958
298.15 K, 101.33 kPa, x2 = 0.1883	1.811
298.15 K, 101.33 kPa, x2 = 0.2587	1.616
298.15 K, 101.33 kPa, x2 = 0.343	1.414
298.15 K, 101.33 kPa, x2 = 0.3986	1.298
298.15 K, 101.33 kPa, x2 = 0.4723	1.167
298.15 K, 101.33 kPa, x2 = 0.5124	1.107
298.15 K, 101.33 kPa, x2 = 0.5819	1.001
298.15 K, 101.33 kPa, x2 = 0.6762	0.8678
298.15 K, 101.33 kPa, x2 = 0.758	0.7707
298.15 K, 101.33 kPa, x2 = 0.8297	0.6887
298.15 K, 101.33 kPa, x2 = 0.9256	0.5981
298.15 K, 101.33 kPa, x2 = 0.9495	0.5805
308.15 K, 101.33 kPa, x2 = 0.0512	1.895
308.15 K, 101.33 kPa, x2 = 0.0983	1.757
308.15 K, 101.33 kPa, x2 = 0.1406	1.648
308.15 K, 101.33 kPa, x2 = 0.1883	1.533
308.15 K, 101.33 kPa, x2 = 0.2587	1.377
308.15 K, 101.33 kPa, x2 = 0.343	1.213
308.15 K, 101.33 kPa, x2 = 0.4723	1.002
308.15 K, 101.33 kPa, x2 = 0.5124	0.948
308.15 K, 101.33 kPa, x2 = 0.5819	0.8651
308.15 K, 101.33 kPa, x2 = 0.6762	0.7581
308.15 K, 101.33 kPa, x2 = 0.8297	0.6034
308.15 K, 101.33 kPa, x2 = 0.8931	0.5517
308.15 K, 101.33 kPa, x2 = 0.9256	0.5282
308.15 K, 101.33 kPa, x2 = 0.9495	0.5118
318.15 K, 101.33 kPa, x2 = 0.0512	1.594
318.15 K, 101.33 kPa, x2 = 0.0983	1.48
318.15 K, 101.33 kPa, x2 = 0.1406	1.393
318.15 K, 101.33 kPa, x2 = 0.1883	1.296
318.15 K, 101.33 kPa, x2 = 0.2587	1.169
318.15 K, 101.33 kPa, x2 = 0.343	1.034
318.15 K, 101.33 kPa, x2 = 0.3986	0.9607
318.15 K, 101.33 kPa, x2 = 0.4723	0.8683
318.15 K, 101.33 kPa, x2 = 0.5124	0.8232
318.15 K, 101.33 kPa, x2 = 0.5819	0.7459
318.15 K, 101.33 kPa, x2 = 0.8297	0.5281
318.15 K, 101.33 kPa, x2 = 0.8931	0.4829
318.15 K, 101.33 kPa, x2 = 0.9256	0.4621
318.15 K, 101.33 kPa, x2 = 0.9495	0.4486

c1ccc2ccccc2c1 + CO
298.15 K, 101 kPa
Conditions	viscosity
x1 = 0.006	0.5509 mPa·s
x1 = 0.01	0.5564 mPa·s and 0.5619 mPa·s
x1 = 0.03	0.5893 mPa·s
